Measurements reported in PubChem BioAssay AID1259407 (Chemical Carcinogenesis Research Information System (CCRIS), 2018).
The source made the active and inactive calls. No rule for the calls is given here.

Test system: CCRIS mutagenicity, Ames/micronucleus/aberration tests
Assay: CCRIS mutagenicity studies

Measured: mutagenic call

Nc1ccccc1
inactive: End Point: IN VITRO CHROMOSOMAL ABERRATIONS, Test System: CHINESE HAMSTER OVARY CELLS, Metabolic Activation: NONE inactive; negative | Test System: AMES SALMONELLA TYPHIMURIUM, Strain/Indicator: TA97, Metabolic Activation: NONE, Method: STANDARD PLATE inactive; negative | Test System: AMES SALMONELLA TYPHIMURIUM, Strain/Indicator: TA97, Metabolic Activation: RAT, LIVER, S-9, AROCLOR 1254, Method: STANDARD PLATE inactive; negative | Test System: AMES SALMONELLA TYPHIMURIUM, Strain/Indicator: TA98(NR), Metabolic Activation: NONE, Method: PREINCUBATION inactive; negative | Test System: AMES SALMONELLA TYPHIMURIUM, Strain/Indicator: TA98(NR), Metabolic Activation: RAT, LIVER, S-9, AROCLOR 1254, Method: PREINCUBATION inactive; negative | Test System: AMES SALMONELLA TYPHIMURIUM, Strain/Indicator: TA98, Metabolic Activation: HAMSTER, LIVER, S-9, AROCLOR 1254, Method: STANDARD PLATE inactive; negative | Test System: AMES SALMONELLA TYPHIMURIUM, Strain/Indicator: TA98, Metabolic Activation: HAMSTER, LIVER, S-9, Method: STANDARD PLATE inactive; negative | Test System: AMES SALMONELLA TYPHIMURIUM, Strain/Indicator: TA98, Metabolic Activation: MOUSE, LIVER, S-9, AROCLOR 1254, Method: STANDARD PLATE inactive; negative | Test System: AMES SALMONELLA TYPHIMURIUM, Strain/Indicator: TA98, Metabolic Activation: MOUSE, LIVER, S-9, Method: STANDARD PLATE inactive; negative | Test System: AMES SALMONELLA TYPHIMURIUM, Strain/Indicator: TA98, Metabolic Activation: NONE, Method: STANDARD PLATE inactive; negative | Test System: AMES SALMONELLA TYPHIMURIUM, Strain/Indicator: TA98, Metabolic Activation: PEA APICAL BUD S-9, Method: PREINCUBATION inactive; negative | Test System: AMES SALMONELLA TYPHIMURIUM, Strain/Indicator: TA98, Metabolic Activation: PEA APICAL BUD S-9, Method: STANDARD PLATE inactive; negative | Test System: AMES SALMONELLA TYPHIMURIUM, Strain/Indicator: TA98, Metabolic Activation: RAT, LIVER, S-9, AROCLOR 1254, Method: STANDARD PLATE inactive; negative | Test System: AMES SALMONELLA TYPHIMURIUM, Strain/Indicator: TA98, Metabolic Activation: RAT, LIVER, S-9, ETHANOL, Method: PREINCUBATION inactive; negative | Test System: AMES SALMONELLA TYPHIMURIUM, Strain/Indicator: TA98, Metabolic Activation: RAT, LIVER, S-9, PHENOBARBITAL, Method: PREINCUBATION inactive; negative | Test System: AMES SALMONELLA TYPHIMURIUM, Strain/Indicator: TA98, Metabolic Activation: RAT, LIVER, S-9, PYRAZOLE, Method: PREINCUBATION inactive; negative | Test System: AMES SALMONELLA TYPHIMURIUM, Strain/Indicator: TA98, Metabolic Activation: RAT, LIVER, S-9, Method: STANDARD PLATE inactive; negative | Test System: AMES SALMONELLA TYPHIMURIUM, Strain/Indicator: TA100(NR), Metabolic Activation: NONE, Method: PREINCUBATION inactive; negative | Test System: AMES SALMONELLA TYPHIMURIUM, Strain/Indicator: TA100(NR), Metabolic Activation: RAT, LIVER, S-9, AROCLOR 1254, Method: PREINCUBATION inactive; negative | Test System: AMES SALMONELLA TYPHIMURIUM, Strain/Indicator: TA100, Metabolic Activation: HAMSTER, LIVER, S-9, AROCLOR 1254, Method: STANDARD PLATE inactive; negative | Test System: AMES SALMONELLA TYPHIMURIUM, Strain/Indicator: TA100, Metabolic Activation: HAMSTER, LIVER, S-9, Method: STANDARD PLATE inactive; negative | Test System: AMES SALMONELLA TYPHIMURIUM, Strain/Indicator: TA100, Metabolic Activation: MOUSE, LIVER, S-9, AROCLOR 1254, Method: STANDARD PLATE inactive; negative | Test System: AMES SALMONELLA TYPHIMURIUM, Strain/Indicator: TA100, Metabolic Activation: MOUSE, LIVER, S-9, Method: STANDARD PLATE inactive; negative | Test System: AMES SALMONELLA TYPHIMURIUM, Strain/Indicator: TA100, Metabolic Activation: NONE, Method: STANDARD PLATE inactive; negative | Test System: AMES SALMONELLA TYPHIMURIUM, Strain/Indicator: TA100, Metabolic Activation: PEA APICAL BUD S-9, Method: PREINCUBATION inactive; negative | Test System: AMES SALMONELLA TYPHIMURIUM, Strain/Indicator: TA100, Metabolic Activation: PEA APICAL BUD S-9, Method: STANDARD PLATE inactive; negative | Test System: AMES SALMONELLA TYPHIMURIUM, Strain/Indicator: TA100, Metabolic Activation: RAT, LIVER, S-9, AROCLOR 1254, Method: PREINCUBATION inactive; negative | Test System: AMES SALMONELLA TYPHIMURIUM, Strain/Indicator: TA100, Metabolic Activation: RAT, LIVER, S-9, AROCLOR 1254, Method: STANDARD PLATE inactive; negative | Test System: AMES SALMONELLA TYPHIMURIUM, Strain/Indicator: TA100, Metabolic Activation: RAT, LIVER, S-9, ETHANOL, Method: PREINCUBATION inactive; negative | Test System: AMES SALMONELLA TYPHIMURIUM, Strain/Indicator: TA100, Metabolic Activation: RAT, LIVER, S-9, PHENOBARBITAL, Method: PREINCUBATION inactive; negative | Test System: AMES SALMONELLA TYPHIMURIUM, Strain/Indicator: TA100, Metabolic Activation: RAT, LIVER, S-9, PYRAZOLE, Method: PREINCUBATION inactive; negative | Test System: AMES SALMONELLA TYPHIMURIUM, Strain/Indicator: TA100, Metabolic Activation: RAT, LIVER, S-9, Method: STANDARD PLATE inactive; negative | Test System: AMES SALMONELLA TYPHIMURIUM, Strain/Indicator: TA102, Metabolic Activation: RAT, LIVER, S-9, AROCLOR 1254, Method: STANDARD PLATE inactive; negative | Test System: AMES SALMONELLA TYPHIMURIUM, Strain/Indicator: TA102, Metabolic Activation: RAT, LIVER, S-9, PYRAZOLE, Method: PREINCUBATION inactive; negative | Test System: AMES SALMONELLA TYPHIMURIUM, Strain/Indicator: TA1535, Metabolic Activation: HAMSTER, LIVER, S-9, AROCLOR 1254, Method: STANDARD PLATE inactive; negative | Test System: AMES SALMONELLA TYPHIMURIUM, Strain/Indicator: TA1535, Metabolic Activation: HAMSTER, LIVER, S-9, Method: STANDARD PLATE inactive; negative | Test System: AMES SALMONELLA TYPHIMURIUM, Strain/Indicator: TA1535, Metabolic Activation: MOUSE, LIVER, S-9, AROCLOR 1254, Method: STANDARD PLATE inactive; negative | Test System: AMES SALMONELLA TYPHIMURIUM, Strain/Indicator: TA1535, Metabolic Activation: MOUSE, LIVER, S-9, Method: STANDARD PLATE inactive; negative | Test System: AMES SALMONELLA TYPHIMURIUM, Strain/Indicator: TA1535, Metabolic Activation: NONE, Method: STANDARD PLATE inactive; negative | Test System: AMES SALMONELLA TYPHIMURIUM, Strain/Indicator: TA1535, Metabolic Activation: RAT, LIVER, S-9, AROCLOR 1254, Method: STANDARD PLATE inactive; negative | Test System: AMES SALMONELLA TYPHIMURIUM, Strain/Indicator: TA1535, Metabolic Activation: RAT, LIVER, S-9, PYRAZOLE, Method: PREINCUBATION inactive; negative
active: End Point: IN VITRO CHROMOSOMAL ABERRATIONS, Test System: CHINESE HAMSTER OVARY CELLS, Metabolic Activation: RAT, LIVER, S-9, AROCLOR 1254 active; positive | End Point: IN VITRO MICRONUCLEUS, Test System: CHL/IU CELLS, Metabolic Activation: RAT, LIVER, S-9, PHENOBARBITAL AND 5,6-BENZOFLAVONE active; positive | End Point: IN VIVO MICRONUCLEUS, Test System: BONE MARROW, Species: MOUSE, Strain/Sex: B6C3F1/MALE, Route: GAVAGE active; positive | End Point: In vivo chromosomal aberrations, Test System: Bone marrow erythrocytes, Species: Rat, Strain/Sex: PVG/Male, Route: Oral active; positive (structural changes) at 500 mg/kg (p<0.01) | End Point: In vivo micronucleus, Test System: Bone marrow erythrocytes, Species: Mouse, Strain/Sex: CRH/Male, Route: Intraperitoneal active; positive (p<0.05)
